The subject of one test is CAMA-1 cells. The test is described as follows: Cell growth (confluency, Incucyte S3). It is filed as cell-based. Conditions: for growth in combination with GDC0941 or AZD5363: 1 μM GDC0941 or AZD5363, SGK3-PROTAC1/cisSGK3-PROTAC1 0.3 μM, 14H 3 μM. On the procedure: (§1) Figure 6 SGK3-PROTAC1-mediated degradation of SGK3 further inhibiting the growth of cancer cell lines treated with PI3K-Akt pathway inhibitors. CAMA-1 (A, C) and ZR-75-1 (B, D) were treated with compounds as indicated either as monotherapy or in combination, and confluency was measured on the Incucyte S3 every 4 h for up to 4 weeks.
(§2) For growth assays, ZR-75-1 cells were seeded in 96-well plates at a density of 6000 cells/well and left to adhere overnight. Cells were then treated with compounds as described in the figure legends and imaged every 4 h on the Incucyte S3 (Essen Bioscience) for up to 4 weeks to give a measure of cell confluency. Media were refreshed every 4–5 days.
(§3) Supplementary Figure S3. SGK3-PROTAC compounds have no effect on cell growth. CAMA-1 and ZR-75-1
(§4) confluency was m easured every 4 h on Incucyte S3.
(§5) (1 picture or pasted object on this page, not shown here)

Another test relates to ZR-75-1 cells. The test is described as follows: Cell growth (confluency, Incucyte S3). The test is classed as cell-based. Conditions: for growth in combination with GDC0941 or AZD5363: 1 μM GDC0941 or AZD5363, SGK3-PROTAC1/cisSGK3-PROTAC1 0.3 μM, 14H 3 μM. As for the experimental part:
as §1, §2, §3, §4, §5

A further test has as its target T1, CDK18 (Homo sapiens, UniProt Q07002).
T1 construct: global proteomic analysis of HEK293 cells treated in the presence or absence of 0.3 μM SGK3-PROTAC1; endogenous in cells; host or cells: HEK293
The test is described as follows: TMT global proteomic analysis of HEK293 cells. The test is classed as cell-based. Conditions: HEK293, 0.3 μM, 8 h. On the procedure: (§6) To establish the specificity of SGK3-PROTAC1 employing an unbiased approach, we performed quantitative Tandem–Mass–Tag (TMT)-labeled global proteomic analysis of HEK293 cells treated in the presence or absence of 0.3 μM SGK3-PROTAC1 compared to either 0.3 μM cisSGK3-PROTAC1 or DMSO for 8 h. Experiments were undertaken in triplicate, and analysis in Proteome Discoverer v2.2 using the Mascot search engine allowed relative quantification of 8766 proteins.
(§7) Figure 4 TMT proteomic analysis of HEK293 cells treated with SGK3-PROTAC1. (A) Cells were treated with DMSO (control), SGK3-PROTAC1 (0.3 μM), or cisSGK3-PROTAC1 (0.3 μM) for 8 h and lysed. Lysates were subjected to immunoblot analysis with the indicated antibodies. (B) Lysates were examined by quantitative proteomics. […]
(§8) Cell culture and proteomic sample preparation
(§9) Cells pellets were lysed with 2 ml of lysis buffer (8 M Urea, 50 mM Ammonium bicarbonate containing protease inhibitor and phosphatase inhibitor). The sample were left on ice for 15 min and were then sonicated for 5 min in ice-cold water bath under high intensity with 30 sec on and off. After sonication, benzonase® endonuclease (Merck Millipore) with the volume ratio of 1: 100 were added into the lysate to degrade DNA and RNA. The lysate were then centrifuged at 12,000 rpm for 15 min at 4 °C, and supernatants were transferred into new eppendorf tubes. The protein concentration were measured with BCA assay (Pierce™ BCA Protein Assay Kit, Thermo). The lysate from each sample was reduced with 5 mM DTT at 45 °C for 30 min. Lysates were briefly centrifuged and were cool down to room temperature before alkylation in the dark with 10 mM iodoacetamide at room temperature. The alkylation was then quenched by the addition of 5 mM DTT. Samples were first digested by Lys-C with the weight ratio of 1:200 (w/w) for 4 h at 30 °c. Then, sample were diluted with 50 mM ammonium bicarbonate to 1.5 M Urea concentration. Samples were then digested with trypsin (Pierce trypsin, Thermo) at an enzyme to protein ratio of 1:50 (w/w) at room temperature with gentle shaking for overnight.
(§10) The digest was stopped by the addition of 1% TFA (v/v), centrifuged at 10,000 g for 10 min at room temperature.
(§11) The supernatant were desalted on 200 mg SepPak tC18 cartridge (Waters). Desalted peptides were dried by vacuum centrifugation using Speedvac (Thermo).
(§12) TMT labelling and Basic C18 reverse phase (bRP) chromatography fractionation Each sample (200 μg of peptides each) was re-suspended in 100 μL of 100 mM TEAB buffer. The TMT labelling reagents were equilibrated to room temperature and 41 μL anhydrous acetonitrile was added to each reagent channel and softly vortexed for 10 min. Peptides were transferred to the corresponding TMT channels and incubated for 1 h at room temperature. The reaction was quenched with 8 μL of 5% hydroxylamine. To ensure complete labelling, 1 µg of labelled samples from each channel were analyzed by LC-MS/MS prior to mix. After evaluation, the complete TMT labelled 9 samples were then combined, acidified and dried. Sep-Pak desalting was then performed and the elution was dried to completeness.
Ultimate 3000 high-pressure liquid chromatography (HPLC) system (Dionex) were used for basic C18 reverse phase chromatography fractionation operating at 569 µL/min with two buffers: buffer A (10 mM ammonium formate, pH 10) and buffer B (80% ACN, 10 mM ammonium formate, pH 10). […]

A further test concerns SDC2. The test is described as follows: TMT global proteomic analysis of HEK293 cells. It is filed as cell-based, Homo sapiens. Conditions: HEK293, 0.3 μM, 8 h. As for the experimental part:
as §6, §7, §8, §9, §10, §11, §12
(§13) Ultimate 3000 high-pressure liquid chromatography (HPLC) system (Dionex) were used for basic C18 reverse phase chromatography fractionation operating at 569 µL/min with two buffers: buffer A (10 mM ammonium formate, pH 10) and buffer B (80% ACN, 10 mM ammonium formate, pH 10). The desalted mixture of TMT-labelled peptides were resuspended in 200 µL of buffer A (10 mM ammonium formate, pH10) and separated on a C18 reverse phase column (4.6 × 250 mm, 3.5 μm, Waters) with a gradient from 3% B to 12.5 % B in 10 min, […]
(§14) min, 100% for 5 min, ramping to 3% B in 2.5 min and then 3% for 10 min. A total of 90 fractions (1 min per fraction) were collected before further concatenation into 30 final fractions. Each fraction was then dried and desalted over a C18 StageTip prior to analysis by mass spectrometry. […]

A further test deals with S100A7. Description: TMT global proteomic analysis of HEK293 cells. The test is classed as cell-based, Homo sapiens. Conditions: HEK293, 0.3 μM, 8 h. As for the experimental part: as §6, §7, §8, §9, §10, §11, §12, §13, §14
Another test has as its system MOXD1. The test is described as follows: TMT global proteomic analysis of HEK293 cells. Conditions: HEK293, 0.3 μM, 8 h. The test is classed as cell-based, Homo sapiens. On the procedure:
as §6, §7, §8, §9, §10, §11, §12, §13, §14

T1 sequence (Q07002 whole entry): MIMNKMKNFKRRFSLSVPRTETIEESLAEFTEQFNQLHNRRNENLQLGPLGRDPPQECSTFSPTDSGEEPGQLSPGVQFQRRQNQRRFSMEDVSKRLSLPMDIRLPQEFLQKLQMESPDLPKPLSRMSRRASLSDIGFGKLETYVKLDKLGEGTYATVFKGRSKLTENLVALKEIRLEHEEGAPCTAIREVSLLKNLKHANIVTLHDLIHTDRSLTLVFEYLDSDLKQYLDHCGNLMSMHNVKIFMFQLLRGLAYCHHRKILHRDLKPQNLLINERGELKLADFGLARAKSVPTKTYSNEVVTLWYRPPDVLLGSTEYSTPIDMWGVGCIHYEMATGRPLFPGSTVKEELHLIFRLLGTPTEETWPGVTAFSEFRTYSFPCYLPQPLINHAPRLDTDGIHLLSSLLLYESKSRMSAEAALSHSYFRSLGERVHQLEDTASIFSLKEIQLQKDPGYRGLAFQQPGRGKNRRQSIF

`Cc1ccc(F)c(S(=O)(=O)Nc2ccc(-c3nc(OC[C@H]4CN(CCCCCCOCCOCCOCC(=O)N[C@H](C(=O)N5C[C@H](O)C[C@H]5C(=O)NCc5ccc(-c6scnc6C)cc5)C(C)(C)C)CCO4)c4cn[nH]c4n3)cc2)c1` [SGK3-PROTAC1]: the “growth, compound alone” value with CAMA-1 cells (CAMA-1) and in the test with ZR-75-1 cells (ZR-75-1) was “no effect on growth” in each case. The “suppression of growth compared with 14H (3 μM)” value in the test on CAMA-1 cells (CAMA-1, 0.3 μM, with AZD5363 1 μM) is reported as “to a similar extent”; in the test on ZR-75-1 cells (ZR-75-1, 0.3 μM, with AZD5363 1 μM), “to a similar extent”. The “inhibition of cell growth compared with 14H (3 μM)” value in the test on CAMA-1 cells (CAMA-1, 0.3 μM, with GDC0941 1 μM) was “to a greater extent”; in the test with ZR-75-1 cells (ZR-75-1, 0.3 μM, with GDC0941 1 μM), “to a greater extent”. In addition, the “growth in combination with GDC0941 or AZD5363” value in the test with CAMA-1 cells (CAMA-1) and in the test on ZR-75-1 cells (ZR-75-1) was “further reduced the growth” each time. In addition, the “Abundances (Grouped)” value at CDK18 is 66.1; with SDC2, 106.6; in the test on S100A7, 90.9; with MOXD1, 90.2. Besides, the “Ratio: (SGK3-PROTAC1) / (cSGK3-PROTAC1)” value was 0.727 at CDK18, 2.505 in the test with SDC2, 1.014 in the test on S100A7 and 1.082 in the test on MOXD1. The “Ratio: (compound) / (DMSO)” value on CDK18 worked out at 0.652; with SDC2, 0.665; in the test on S100A7 it was 0.645; in the test on MOXD1 it was 0.713.

As to `Cc1ccc(F)c(S(=O)(=O)Nc2ccc(-c3nc(OC[C@H]4CN(CCCCCCOCCOCCOCC(=O)N[C@H](C(=O)N5C[C@@H](O)C[C@H]5C(=O)NCc5ccc(-c6scnc6C)cc5)C(C)(C)C)CCO4)c4cn[nH]c4n3)cc2)c1` [cisSGK3-PROTAC1], the “growth in combination with GDC0941 or AZD5363” value in the test on CAMA-1 cells (CAMA-1) and in the test on ZR-75-1 cells (ZR-75-1) was “minimal effect” each time. In addition, the “Abundances (Grouped)” value at CDK18 came to 126.5; with SDC2, 37.8; in the test on S100A7, 90.1; in the test with MOXD1 it was 83.4. In addition, the “Ratio: (compound) / (DMSO)” value is given as 1.144 at CDK18, 0.266 in the test with SDC2, 1.695 in the test with S100A7 and 0.656 in the test with MOXD1.

Source of the values: publication PMC6757289, “Design and Characterization of SGK3-PROTAC1, an Isoform Specific SGK3 Kinase PROTAC Degrader” (ACS Chemical Biology, 2019).
